Experimental data: PubChem BioAssay AID2060886 (Molecular Pharmacology Branch, DTP, NCI, 2025)

System: 653999-131-R-J2-PDC complex spheroids, growth inhibition
Test: Anticancer human tumor 653999-131-R-J2-PDC patient-derived lung adenocarcinoma cell line growth inhibition [RAS]
Conditions: for IC50: curve of first compound; for viability, T/C: stronger effect = lower value; active = viability on the fitted dose curve at most 10% of control; inactive = the rest
In short: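 Multi-cell-type spheroids: tumor cells plus HUVEC endothelial cells and mesenchymal stem cells. RAS-pathway inhibitors were combined with targeted agents, each dosed in half-log steps down from clinical Cmax, or from 10 microM when Cmax was unknown.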

[1] = second compound 0.000949 µM, first compound 0.0316 µM
[2] = second compound 0.000949 µM, first compound 0.1 µM
[3] = second compound 0.000949 µM, first compound 0.316 µM
[4] = second compound 0.000949 µM, first compound 1 µM
[5] = second compound 0.000949 µM, first compound 3.16 µM
[6] = second compound 0.000949 µM, first compound 10 µM
[7] = second compound 0.003 µM, first compound 0.0316 µM
[8] = second compound 0.003 µM, first compound 0.1 µM
[9] = second compound 0.003 µM, first compound 0.316 µM
[10] = second compound 0.003 µM, first compound 1 µM
[11] = second compound 0.003 µM, first compound 3.16 µM
[12] = second compound 0.003 µM, first compound 10 µM
[13] = second compound 0.00949 µM, first compound 0.0316 µM
[14] = second compound 0.00949 µM, first compound 0.1 µM
[15] = second compound 0.00949 µM, first compound 0.316 µM
[16] = second compound 0.00949 µM, first compound 1 µM
[17] = second compound 0.00949 µM, first compound 3.16 µM
[18] = second compound 0.00949 µM, first compound 10 µM
[19] = second compound 0.03 µM, first compound 0.0316 µM
[20] = second compound 0.03 µM, first compound 0.1 µM
[21] = second compound 0.03 µM, first compound 0.316 µM
[22] = second compound 0.03 µM, first compound 1 µM
[23] = second compound 0.03 µM, first compound 3.16 µM
[24] = second compound 0.03 µM, first compound 10 µM
[25] = second compound 0.0949 µM, first compound 0.0316 µM
[26] = second compound 0.0949 µM, first compound 0.1 µM
[27] = second compound 0.0949 µM, first compound 0.316 µM
[28] = second compound 0.0949 µM, first compound 1 µM
[29] = second compound 0.0949 µM, first compound 3.16 µM
[30] = second compound 0.0949 µM, first compound 10 µM
[31] = second compound 0.3 µM, first compound 0.0316 µM
[32] = second compound 0.3 µM, first compound 0.1 µM
[33] = second compound 0.3 µM, first compound 0.316 µM
[34] = second compound 0.3 µM, first compound 1 µM
[35] = second compound 0.3 µM, first compound 3.16 µM
[36] = second compound 0.3 µM, first compound 10 µM
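Note: spheroids exposed to the agents for seven days before the readout.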

NC1c2ccccc2OC12CCN(c1cnc3c(N4CCCc5ncccc54)n[nH]c3n1)CC2 (centres undefined) + CCn1c(-c2cccnc2C(C)OC)c2c3cc(ccc31)N1CCOC(CC(NC(=O)C(C(C)C)N(C)C(=O)C3(F)CCN(C(=O)C#CC(C)(C)N(C)C)CC3)C(=O)N3CCCC(N3)C(=O)OCC(C)(C)C2)C1
inactive: viability, T/C [1] 74.6% | viability, T/C [2] 75.4% | viability, T/C [3] 82.6% | viability, T/C [4] 71.6% | viability, T/C [5] 71.9% | viability, T/C [6] 85.5% | viability, T/C [7] 83.4% | viability, T/C [8] 83.3% | viability, T/C [9] 75.5% | viability, T/C [10] 67% | viability, T/C [11] 75.8% | viability, T/C [12] 77.5% | viability, T/C [13] 70.3% | viability, T/C [14] 82.2% | viability, T/C [15] 67.6% | viability, T/C [16] 76.2% | viability, T/C [17] 72.3% | viability, T/C [18] 65.3% | viability, T/C [19] 68.9% | viability, T/C [20] 66.2% | viability, T/C [21] 64.1% | viability, T/C [22] 72% | viability, T/C [23] 76.2% | viability, T/C [24] 67.7% | viability, T/C [25] 78.6% | viability, T/C [26] 71.4% | viability, T/C [27] 73.5% | viability, T/C [28] 71.9% | viability, T/C [29] 72.1% | viability, T/C [30] 73.5% | viability, T/C [31] 83.8% | viability, T/C [32] 72.2% | viability, T/C [33] 87.3% | viability, T/C [34] 79.6% | viability, T/C [35] 70% | viability, T/C [36] 71.7%
> 10000 nM: IC50 (second compound 0.000949 µM) | IC50 (second compound 0.003 µM) | IC50 (second compound 0.00949 µM) | IC50 (second compound 0.03 µM) | IC50 (second compound 0.0949 µM) | IC50 (second compound 0.3 µM)

CC(Nc1ccc2c(c1)OCCn1cc(N3C(=O)OCC3C(F)F)nc1-2)C(N)=O (centres undefined) + CCn1c(-c2cccnc2C(C)OC)c2c3cc(ccc31)N1CCOC(CC(NC(=O)C(C(C)C)N(C)C(=O)C3(F)CCN(C(=O)C#CC(C)(C)N(C)C)CC3)C(=O)N3CCCC(N3)C(=O)OCC(C)(C)C2)C1
772 nM: IC50 (second compound 0.000949 µM)
510 nM: IC50 (second compound 0.0949 µM)
442 nM: IC50 (second compound 0.3 µM)
544 nM: IC50 (second compound 0.00949 µM)
473 nM: IC50 (second compound 0.03 µM)
inactive: viability, T/C [1] 85.2% | viability, T/C [2] 79.2% | viability, T/C [3] 66.4% | viability, T/C [4] 44.6% | viability, T/C [5] 29.4% | viability, T/C [6] 20.1% | viability, T/C [7] 88.3% | viability, T/C [8] 70.8% | viability, T/C [9] 59.3% | viability, T/C [10] 38% | viability, T/C [11] 30.1% | viability, T/C [12] 20.3% | viability, T/C [13] 99.2% | viability, T/C [14] 71% | viability, T/C [15] 60.3% | viability, T/C [16] 43.7% | viability, T/C [17] 26.8% | viability, T/C [18] 21.9% | viability, T/C [19] 83.3% | viability, T/C [20] 69.6% | viability, T/C [21] 56.8% | viability, T/C [22] 37% | viability, T/C [23] 33.2% | viability, T/C [24] 20.5% | viability, T/C [25] 85.8% | viability, T/C [26] 73.7% | viability, T/C [27] 57.2% | viability, T/C [28] 40.1% | viability, T/C [29] 29.3% | viability, T/C [30] 23.9% | viability, T/C [31] 92% | viability, T/C [32] 67.5% | viability, T/C [33] 53.5% | viability, T/C [34] 41.2% | viability, T/C [35] 29.4% | viability, T/C [36] 18.3%
502 nM: IC50 (second compound 0.003 µM)
